Measurements from PubChem BioAssay AID1745844 (Carcinogenic Potency Database (CPDB), 2022).
Values joined by “and” are separate entries in the source; they are usually repeats but may differ in a detail not shown here. Identical values can stand only once. Active and inactive are the calls of the source. No rule for the calls is given here.

Tested on: rodent lifetime carcinogenesis bioassay, tumor incidence TD50
Experiment: chronic cancer bioassays in animals – CPDB, compiled studies (AID 1745844)

`CCN=[N+]([O-])CC` gave a TD50 (rat, strain Fischer 344, males, in drinking water, site: esophagus, lesion: several types, types named in the paper, dosed 30 weeks, study length 55 weeks) of 0.0302 mg/kg/day, a TD50 (rat, strain Fischer 344, males, in drinking water, site: liver, lesion: hemangiosarcoma, dosed 30 weeks, study length 55 weeks) of 0.0347 mg/kg/day and a TD50 (rat, strain Fischer 344, males, in drinking water, site: liver, lesion: hepatocellular carcinoma, dosed 30 weeks, study length 55 weeks) of 0.0347 mg/kg/day. For the same compound, the TD50 (rat, strain Fischer 344, males, in drinking water, site: liver, lesion: neurosarcoma, dosed 30 weeks, study length 55 weeks) was 0.0971 mg/kg/day, the carcinogen call (rat, strain Fischer 344, males, in drinking water, site: liver, lesion: several types, types named in the paper, dosed 30 weeks, study length 55 weeks) was “positive” and the TD50 (rat, strain Fischer 344, males, in drinking water, site: nasal cavity, lesion: several types, types named in the paper, dosed 30 weeks, study length 55 weeks) was 0.022 mg/kg/day.

`O=P(=O)O` was tested, and the TD50 (rat, strain F344/DuCrj, females, in feed, site: any site (literature study), lesion: several types, types named in the paper, dosed 108 weeks, study length 108 weeks) was 5100 mg/kg/day (inactive), the carcinogen call (rat, strain F344/DuCrj, females, in feed, site: liver, lesion: one or several types, types not named, dosed 108 weeks, study length 108 weeks) was “negative (inactive)” and the carcinogen call (rat, strain F344/DuCrj, males, in feed, site: any site (literature study), lesion: several types, types named in the paper, dosed 108 weeks, study length 108 weeks) was “negative (inactive)”. For the same compound, the carcinogen call (rat, strain F344/DuCrj, males, in feed, site: liver, lesion: one or several types, types not named, dosed 108 weeks, study length 108 weeks) was “negative (inactive)”.

`Nc1ccc(Oc2ccc(Cl)cc2)cc1` showed a TD50 (mouse, strain CD-1 HaM/ICR, females, in feed, site: all sites, lesion: all vascular tumors, dosed 68 weeks, study length 86 weeks) of 346 mg/kg/day, a TD50 (mouse, strain CD-1 HaM/ICR, females, in feed, site: any site (literature study), lesion: several types, types named in the paper, dosed 68 weeks, study length 86 weeks) of 598 mg/kg/day and a TD50 (mouse, strain CD-1 HaM/ICR, females, in feed, site: liver, lesion: several types, types named in the paper, dosed 68 weeks, study length 86 weeks) of 905 mg/kg/day. The TD50 (mouse, strain CD-1 HaM/ICR, females, in feed, site: urinary bladder, lesion: several types, types named in the paper, dosed 68 weeks, study length 86 weeks) was 1130 mg/kg/day, the carcinogen call (mouse, strain CD-1 HaM/ICR, males, in feed, site: any site (literature study), lesion: several types, types named in the paper, dosed 51 weeks, study length 55 weeks) was “negative (inactive)” and the carcinogen call (mouse, strain CD-1 HaM/ICR, males, in feed, site: liver, lesion: several types, types named in the paper, dosed 51 weeks, study length 55 weeks) was “negative (inactive)”. The carcinogen call (mouse, strain CD-1 HaM/ICR, males, in feed, site: lung, lesion: several types, types named in the paper, dosed 51 weeks, study length 55 weeks) was “negative (inactive)”, the TD50 (rat, strain Charles River CD (Sprague-Dawley), males, in feed, site: any site (literature study), lesion: several types, types named in the paper, dosed 77 weeks, study length 98 weeks) was 25.1 mg/kg/day and the TD50 (rat, strain Charles River CD (Sprague-Dawley), males, in feed, site: liver, lesion: hepatoma, dosed 77 weeks, study length 98 weeks) was 37.9 mg/kg/day and 37.6 mg/kg/day. It also gave a TD50 (rat, strain Charles River CD (Sprague-Dawley), males, in feed, site: liver, lesion: several types, types named in the paper, dosed 77 weeks, study length 98 weeks) of 37.9 mg/kg/day.

`O=[N+]([O-])c1cccc2ccccc12` was tested, and the carcinogen call (mouse, strain B6C3F1, females, in feed, site: any site (literature study), lesion: several types, types named in the paper, dosed 78 weeks, study length 96 weeks) was “negative (inactive)”, the TD50 (mouse, strain B6C3F1, females, in feed, site: lung, lesion: alveolar/bronchiolar adenoma + alveolar/bronchiolar carcinoma, dosed 78 weeks, study length 96 weeks) was 682 mg/kg/day and the carcinogen call (mouse, strain B6C3F1, males, in feed, site: any site (literature study), lesion: several types, types named in the paper, dosed 78 weeks, study length 96 weeks) was “negative (inactive)”. The carcinogen call (rat, strain Fischer 344, females, in feed, site: any site (literature study), lesion: several types, types named in the paper, dosed 78 weeks, study length 107 weeks) was “negative (inactive)”, the carcinogen call (rat, strain Fischer 344, males, in feed, site: any site (literature study), lesion: several types, types named in the paper, dosed 78 weeks, study length 107 weeks) was “negative (inactive)” and the TD50 (rat, strain Fischer 344, males, in feed, site: liver, lesion: hepatocellular adenoma + hepatocellular carcinoma + neoplastic nodule, dosed 78 weeks, study length 107 weeks) was 509 mg/kg/day.

`Nc1ccc(-c2ccc(F)cc2)cc1` was tested, and the TD50 (mouse, strain CBA, females, by gavage, site: liver, lesion: hepatoma, dosed 26 weeks, study length 114 weeks) was 1.09 mg/kg/day, the TD50 (mouse, strain CBA, males, by gavage, site: liver, lesion: hepatoma, dosed 26 weeks, study length 104 weeks) was 1.19 mg/kg/day and the TD50 (mouse, strain CBA, males, by gavage, site: liver, lesion: several types, types named in the paper, dosed 26 weeks, study length 104 weeks) was 1.19 mg/kg/day.

For `Cc1cc(O)c(C(C)(C)C)cc1Sc1cc(C(C)(C)C)c(O)cc1C`, the TD50 (mouse, strain B6C3F1, females, in feed, site: any site (literature study), lesion: several types, types named in the paper, dosed 104 weeks, study length 104 weeks) was 484 mg/kg/day (inactive), the TD50 (mouse, strain B6C3F1, females, in feed, site: lung, lesion: alveolar/bronchiolar adenoma + alveolar/bronchiolar carcinoma, dosed 104 weeks, study length 104 weeks) was 2020 mg/kg/day and the carcinogen call (mouse, strain B6C3F1, males, in feed, site: any site (literature study), lesion: several types, types named in the paper, dosed 104 weeks, study length 104 weeks) was “negative (inactive)”. It also gave a TD50 (rat, strain Fischer 344, females, in feed, site: any site (literature study), lesion: several types, types named in the paper, dosed 104 weeks, study length 104 weeks) of 196 mg/kg/day, a TD50 (rat, strain Fischer 344, females, in feed, site: liver, lesion: hepatocellular adenoma + hepatoblastoma + hepatocellular carcinoma, dosed 104 weeks, study length 104 weeks) of 3990 mg/kg/day and a TD50 (rat, strain Fischer 344, females, in feed, site: thyroid gland, lesion: c-cell adenoma + c-cell adenoma, bilateral, dosed 104 weeks, study length 104 weeks) of 361 mg/kg/day. The TD50 (rat, strain Fischer 344, females, in feed, site: thyroid gland, lesion: c-cell adenoma + c-cell carcinoma + c-cell adenoma, bilateral, dosed 104 weeks, study length 104 weeks) was 325 mg/kg/day, the TD50 (rat, strain Fischer 344, females, in feed, site: uterus, lesion: endometrial stromal polyp + endometrial stromal sarcoma, dosed 104 weeks, study length 104 weeks) was 262 mg/kg/day (inactive) and the TD50 (rat, strain Fischer 344, females, in feed, site: uterus, lesion: endometrial stromal polyp, dosed 104 weeks, study length 104 weeks) was 286 mg/kg/day. The TD50 (rat, strain Fischer 344, males, in feed, site: any site (literature study), lesion: several types, types named in the paper, dosed 104 weeks, study length 104 weeks) was 449 mg/kg/day (inactive) and the TD50 (rat, strain Fischer 344, males, in feed, site: liver, lesion: hepatocellular adenoma + hepatoblastoma + hepatocellular carcinoma, dosed 104 weeks, study length 104 weeks) was 324 mg/kg/day.

For `CS(=O)(=O)OCCCCOS(C)(=O)=O`, the TD50 (rat, strain BR 46, males, by gavage, site: any site (literature study), lesion: benign tumor, dosed 52 weeks, study length 104 weeks) was 0.642 mg/kg/day, the TD50 (rat, strain BR 46, males, by gavage, site: any site (literature study), lesion: malignant tumor, dosed 52 weeks, study length 104 weeks) was 0.117 mg/kg/day and the TD50 (rat, strain BR 46, males, by gavage, site: any site (literature study), lesion: several types, types named in the paper, dosed 52 weeks, study length 104 weeks) was 0.0931 mg/kg/day.

For `CCN(Cc1cccc(S(=O)(=O)O)c1)c1ccc(C(=C2C=CC(=[N+](CC)Cc3cccc(S(=O)(=O)O)c3)C=C2)c2ccccc2S(=O)(=O)[O-])cc1`, the carcinogen call (mouse, strain Charles River CD1, females, in feed, site: liver, lesion: hemangioma, dosed 104 weeks, study length 104 weeks) was “negative (inactive)”, the TD50 (mouse, strain Charles River CD1, females, in feed, site: lung, lesion: adenocarcinoma, dosed 104 weeks, study length 104 weeks) was 372000 mg/kg/day (inactive) and the carcinogen call (mouse, strain Charles River CD1, females, in feed, site: lung, lesion: alveolar-cell adenoma, dosed 104 weeks, study length 104 weeks) was “negative (inactive)”. For the same compound, the TD50 (mouse, strain Charles River CD1, females, in feed, site: lung, lesion: alveolar-cell carcinoma, dosed 104 weeks, study length 104 weeks) was 607000 mg/kg/day (inactive), the carcinogen call (mouse, strain Charles River CD1, females, in feed, site: lung, lesion: bronchiolar adenocarcinoma, dosed 104 weeks, study length 104 weeks) was “negative (inactive)” and the TD50 (mouse, strain Charles River CD1, females, in feed, site: lung, lesion: bronchiolar adenoma, dosed 104 weeks, study length 104 weeks) was 856000 mg/kg/day (inactive). For the same compound, the carcinogen call (mouse, strain Charles River CD1, males, in feed, site: liver, lesion: hemangiosarcoma, dosed 104 weeks, study length 104 weeks) was “negative (inactive)”, the carcinogen call (mouse, strain Charles River CD1, males, in feed, site: liver, lesion: hepatocellular carcinoma, dosed 104 weeks, study length 104 weeks) was “negative (inactive)” and the TD50 (mouse, strain Charles River CD1, males, in feed, site: lung, lesion: adenocarcinoma, dosed 104 weeks, study length 104 weeks) was 293000 mg/kg/day (inactive). For the same compound, the carcinogen call (mouse, strain Charles River CD1, males, in feed, site: lung, lesion: alveogenic adenocarcinoma, dosed 104 weeks, study length 104 weeks) was “negative (inactive)”, the carcinogen call (mouse, strain Charles River CD1, males, in feed, site: lung, lesion: alveolar-cell adenoma, dosed 104 weeks, study length 104 weeks) was “negative (inactive)” and the carcinogen call (mouse, strain Charles River CD1, males, in feed, site: lung, lesion: alveolar-cell carcinoma, dosed 104 weeks, study length 104 weeks) was “negative (inactive)”. The TD50 (mouse, strain Charles River CD1, males, in feed, site: lung, lesion: bronchiolar adenocarcinoma, dosed 104 weeks, study length 104 weeks) was 343000 mg/kg/day (inactive), the TD50 (mouse, strain Charles River CD1, males, in feed, site: lung, lesion: bronchiolar adenoma, dosed 104 weeks, study length 104 weeks) was 91100 mg/kg/day (inactive) and the carcinogen call (rat, strain Osborne-Mendel, both sexes, in feed, site: any site (literature study), lesion: several types, types named in the paper, dosed 104 weeks, study length 104 weeks) was “negative (inactive)”. It also gave a TD50 (rat, strain Osborne-Mendel, both sexes, in feed, site: liver, lesion: hepatoma, dosed 104 weeks, study length 104 weeks) of 62100 mg/kg/day.

`Clc1ccc2c(c1)Oc1ccc(Cl)cc1O2` was tested, and the carcinogen call (mouse, strain B6C3F1, females, in feed, site: any site (literature study), lesion: several types, types named in the paper, dosed 90 weeks, study length 91 weeks) was “negative (inactive)”, the TD50 (mouse, strain B6C3F1, males, in feed, site: all sites, lesion: hemangioma + hemangiosarcoma, dosed 90 weeks, study length 92 weeks) was 2750 mg/kg/day and the TD50 (mouse, strain B6C3F1, males, in feed, site: all sites, lesion: leukemia + lymphoma, dosed 90 weeks, study length 92 weeks) was 1920 mg/kg/day. The TD50 (mouse, strain B6C3F1, males, in feed, site: any site (literature study), lesion: several types, types named in the paper, dosed 90 weeks, study length 92 weeks) was 2910 mg/kg/day, the TD50 (mouse, strain B6C3F1, males, in feed, site: liver, lesion: hepatocellular adenoma + hepatocellular carcinoma + neoplastic nodule, dosed 90 weeks, study length 92 weeks) was 2120 mg/kg/day and the TD50 (mouse, strain B6C3F1, males, in feed, site: liver, lesion: hepatocellular adenoma + hepatocellular carcinoma, dosed 90 weeks, study length 92 weeks) was 2120 mg/kg/day. For the same compound, the carcinogen call (rat, strain Osborne-Mendel, females, in feed, site: any site (literature study), lesion: several types, types named in the paper, dosed 110 weeks, study length 110 weeks) was “negative (inactive)”, the carcinogen call (rat, strain Osborne-Mendel, males, in feed, site: any site (literature study), lesion: several types, types named in the paper, dosed 110 weeks, study length 110 weeks) was “negative (inactive)” and the TD50 (rat, strain Osborne-Mendel, males, in feed, site: liver, lesion: hepatocellular adenoma + hepatocellular carcinoma + neoplastic nodule, dosed 110 weeks, study length 110 weeks) was 12900 mg/kg/day.

In the case of `O=NN1CC=CCO1`, the TD50 (rat, strain Sprague-Dawley, both sexes, in drinking water, site: any site (literature study), lesion: malignant tumor, dosed 87 weeks, study length 101 weeks) is reported as 90.6 mg/kg/day, the TD50 (rat, strain Sprague-Dawley, both sexes, in drinking water, site: any site (literature study), lesion: several types, types named in the paper, dosed 87 weeks, study length 101 weeks) is reported as 110 mg/kg/day and the TD50 (rat, strain Sprague-Dawley, both sexes, in drinking water, site: liver, lesion: hepatoma, dosed 87 weeks, study length 101 weeks) is reported as 417 mg/kg/day (inactive).
